Experimental data: patent publication EP0671918B1, “COMPOSITIONS CONTAINING ACYCLOVIR-LIKE COMPOUNDS AND 2'-VINYL SUBSTITUTED NUCLEOSIDE ANALOGS FOR THE TREATMENT OF VIRAL INFECTIONS” (MERRELL PHARMACEUTICALS INC., priority 1992, dated 1994)

Assays:
[1] = test system: herpes simplex virus type I; assay: Anti-herpes viral yield reduction in vero cells, plaque method; assay type: cell-based, herpes simplex virus KOS (type 1); settings: 24 hours post infection
Protocol: (§1) Two strains of herpes simplex virus are used: KOS (type 1) and EKC (type 2). Prepare all of the virus stocks by infecting vero cells at an input multiplicity of 0.1 PFU/cell. Sonically disrupt the cultures at 20-24 hours post infection and store them at -70°C after inclusion of DMSO to 5% (v/v) to prevent freeze damage.
(§2) Determine the anti-herpes viral activity of the compounds by a known method (Ash and Diekema, Antiviral Research, 8: 71-83 (1987)). For example, infect vero cells with each strain of HSV at 1 PFU/Cell. At the end of the absorption period (60 min., 36°C), remove the unattached virus. Wash cell sheets twice with Eagles basal medium (EBM) and 2% fetal calf serum (FCS). Add fresh medium containing the test compounds. Finally, determine viral yields at 24 hours post infection by plaque method on vero cells with methyl cellulose overlay (0.5% in EBM + 1% FCS).

[2] = test system: herpes simplex virus type II; assay: as above; assay type: cell-based, herpes simplex virus EKC (type 2); settings: 24 hours post infection; for Virus Titer: Viral Control 1.24x10^5
Protocol: as §1, §2

[3] = Single agent, Conc. 5.0 ng/ml, Viral Control 2.6x10^5

Compound	inhibition at 0.0125 µg/mL ([1]; Conc. 0.0125 ug/ml) [%]	Virus Titer ([1]; Conc. 0.0125 ug/ml, Viral Control 3.7x10^8)	inhibition at 0.025 µg/mL ([1]; Conc. 0.025 ug/ml) [%]	Virus Titer ([1]; Conc. 0.025 ug/ml, Viral Control 3.7x10^8)	inhibition at 0.05 µg/mL ([1]; Conc. 0.050 ug/ml) [%]	Virus Titer ([1]; Conc. 0.050 ug/ml, Viral Control 3.7x10^8) [P.F.U./ml]	inhibition at 0.1 µg/mL ([1]; Conc. 0.10 ug/ml) [%]	Virus Titer ([1]; Conc. 0.10 ug/ml, Viral Control 3.7x10^8) [P.F.U./ml]	inhibition at 0.005 µg/mL ([1]; Single agent, Conc. 5.0 ng/ml) [%]	Virus Titer [1, 3]	inhibition at 0.0125 µg/mL ([2]; Conc. 0.0125 ug/ml) [%]	Virus Titer ([2]; Conc. 0.0125 ug/ml)	inhibition at 0.025 µg/mL ([2]; Conc. 0.025 ug/ml) [%]	Virus Titer ([2]; Conc. 0.025 ug/ml)	inhibition at 0.05 µg/mL ([2]; Conc. 0.050 ug/ml) [%]	Virus Titer ([2]; Conc. 0.050 ug/ml) [P.F.U./ml]	inhibition at 0.1 µg/mL ([2]; Conc. 0.10 ug/ml) [%]	Virus Titer ([2]; Conc. 0.10 ug/ml) [P.F.U./ml]	inhibition at 0.0025 µg/mL ([1]; Single agent, Conc. 2.5 ng/ml) [%]	Virus Titer ([1]; Single agent, Conc. 2.5 ng/ml, Viral Control 2.6x10^5)
Nc1ccn([C@@H]2O[C@H](CO)[C@@H](O)/C2=C\F)c(=O)n1 [Compound A, (E)-2'-deoxy-2'-fluoromethylidenecytidine]	0	5.5x10^8 P.F.U./ml	88	4.5x10^7 P.F.U./ml	100	0	100	0	42	1.6x10^5 P.F.U./ml	32	8.5x10^4 P.F.U./ml	96	5.5x10^3 P.F.U./ml	100	0	100	0		
Nc1nc2c(ncn2COCCO)c(=O)[nH]1 [ACV, 9-[(2-hydroxyethoxy)methyl]guanine, reference compound]									30	1.85x10^5 P.F.U./ml									0	3x10^5 P.F.U./ml
